Test results taken from publication PMC9029538, “Dosing Colistimethate Every 8 h Results in Higher Plasma Concentrations of Active Colistin Than Every 12-Hourly Dosing without Increase in Nephrotoxicity: A Phase 1 Pharmacokinetics Trial in Healthy Adult Volunteers” (Antibiotics, 2022).

Legend:
[1] = Treatment-emergent adverse events, safety population; type: in vivo, healthy adult volunteers; conditions: for Ataxia / Blood creatinine increased / Dizziness / Glycosuria / Proteinuria / Red blood cells urine / Renal and urinary disorders / White blood cells urine positive / Blood calcium decreased / Headache / Investigations / Lymphocyte count decreased / Nervous system disorders / Number of Subjects with at Least One Adverse Event / Paresthesia / Prothrombin time prolonged / Respiratory, thoracic and mediastinal disorders / Cough: TEAE, subjects n (%)
Procedure: (§1) Safety assessments for TEAEs were conducted, including physical examinations (including neurological evaluations), […], vital signs, clinical laboratory tests, selected biomarkers for acute kidney injury (see section on kidney biomarkers), spirometry, and ECG measurements (see Supplementary Data S5 and S6 for clinical laboratory evaluations and schedule of events). If symptoms of ataxia were present, SARA (Scale for the Assessment and Rating of Ataxia, according to Schmitz-Hübsch et al.) assessment forms were completed to assess their severity.

[2] = Neurotoxicity (paresthesias, ataxia, SARA scores); type: in vivo, healthy adult volunteers; set-up: key to SARA score: Nose–finger—right / SARA score: Nose–finger—left: 0: no tremor; 0.5: tremor with an amplitude < 2 cm (unilateral); 1: tremor with an amplitude < 2 cm (bilateral); key to SARA score: Fast alternating hand movements—right / SARA score: Fast alternating hand movements—left / SARA score: Heel–shin slide—right / SARA score: Heel–shin slide—left / SARA score: Sitting / SARA score: Speech disturbance: 0: normal; key to SARA score: Finger chase—right / SARA score: Finger chase—left: 0: normal, no dysmetria; 0.5: dysmetria, under/overshooting target < 5 cm (unilateral); 1: dysmetria, under/overshooting target < 5 cm (bilateral); key to Cumulative SARA Score / SARA score: Gait / SARA score: Stance: normal, able to stand in tandem for >10s; able to stand with feet together without sway, but not in tandem for >10s; 2: able to stand with feet together for >10s, but only with sway; conditions: for Cumulative SARA Score / SARA score: Fast alternating hand movements—left / SARA score: Fast alternating hand movements—right / SARA score: Finger chase—left / SARA score: Finger chase—right / SARA score: Gait / SARA score: Heel–shin slide—left / SARA score: Heel–shin slide—right / SARA score: Nose–finger—left / SARA score: Nose–finger—right / SARA score: Sitting / SARA score: Speech disturbance / SARA score: Stance: highest score for any visit
Procedure: as §1

colistimethate sodium [CMS]
Ataxia ([1]; Cohort 1 (N = 9)): 0 | Blood creatinine increased ([1]; Cohort 1 (N = 9)): 0 | Dizziness ([1]; Cohort 1 (N = 9)): 0 | Glycosuria ([1]; Cohort 1 (N = 9)): 0 | Proteinuria ([1]; Cohort 1 (N = 9)): 1 (11.1%) | Red blood cells urine ([1]; Cohort 1 (N = 9)): 0 | Renal and urinary disorders ([1]; Cohort 1 (N = 9)): 1 (11.1%) | White blood cells urine positive ([1]; Cohort 1 (N = 9)): 0 | Blood calcium decreased ([1]; Cohort 2 (N = 10)): 0 | Blood creatinine increased ([1]; Cohort 2 (N = 10)): 1 (10.0%) | Glycosuria ([1]; Cohort 2 (N = 10)): 0 | Headache ([1]; Cohort 2 (N = 10)): 5 (50.0%) | Investigations ([1]; Cohort 2 (N = 10)): 6 (60.0%) | Lymphocyte count decreased ([1]; Cohort 2 (N = 10)): 1 (10.0%) | Nervous system disorders ([1]; Cohort 2 (N = 10)): 10 (100.0%) | Number of Subjects with at Least One Adverse Event ([1]; Cohort 2 (N = 10)): 10 (100.0%) | Paresthesia ([1]; Cohort 2 (N = 10)): 10 (100.0%) | Prothrombin time prolonged ([1]; Cohort 2 (N = 10)): 3 (30.0%) | Red blood cells urine ([1]; Cohort 2 (N = 10)): 1 (10.0%) | Respiratory, thoracic and mediastinal disorders ([1]; Cohort 2 (N = 10)): 3 (30.0%) | Ataxia ([1]; Cohort 3 (N = 12)): 10 (83.3%) | Blood calcium decreased ([1]; Cohort 3 (N = 12)): 4 (33.3%) | Cough ([1]; Cohort 3 (N = 12)): 2 (16.7%) | Dizziness ([1]; Cohort 3 (N = 12)): 2 (16.7%) | Headache ([1]; Cohort 3 (N = 12)): 4 (33.3%) | Investigations ([1]; Cohort 3 (N = 12)): 11 (91.7%) | Lymphocyte count decreased ([1]; Cohort 3 (N = 12)): 1 (8.3%) | Nervous system disorders ([1]; Cohort 3 (N = 12)): 11 (91.7%) | Number of Subjects with at Least One Adverse Event ([1]; Cohort 3 (N = 12)): 11 (91.7%) | Paresthesia ([1]; Cohort 3 (N = 12)): 9 (75.0%) | Proteinuria ([1]; Cohort 3 (N = 12)): 7 (58.3%) | Prothrombin time prolonged ([1]; Cohort 3 (N = 12)): 1 (8.3%) | Renal and urinary disorders ([1]; Cohort 3 (N = 12)): 7 (58.3%) | Respiratory, thoracic and mediastinal disorders ([1]; Cohort 3 (N = 12)): 2 (16.7%) | White blood cells urine positive ([1]; Cohort 3 (N = 12)): 7 (58.3%) | Ataxia ([1]; Overall (N = 31)): 17 (54.8%) | Blood calcium decreased ([1]; Overall (N = 31)): 6 (19.4%) | Blood creatinine increased ([1]; Overall (N = 31)): 5 (16.1%) | Cough ([1]; Overall (N = 31)): 6 (19.4%) | Dizziness ([1]; Overall (N = 31)): 5 (16.1%) | Glycosuria ([1]; Overall (N = 31)): 5 (16.1%) | Headache ([1]; Overall (N = 31)): 14 (45.2%) | Investigations ([1]; Overall (N = 31)): 24 (77.4%) | Lymphocyte count decreased ([1]; Overall (N = 31)): 4 (12.9%) | Nervous system disorders ([1]; Overall (N = 31)): 27 (87.1%) | Number of Subjects with at Least One Adverse Event ([1]; Overall (N = 31)): 30 (96.8%) | Paresthesia ([1]; Overall (N = 31)): 24 (77.4%) | Proteinuria ([1]; Overall (N = 31)): 10 (32.3%) | Prothrombin time prolonged ([1]; Overall (N = 31)): 7 (22.6%) | Red blood cells urine ([1]; Overall (N = 31)): 4 (12.9%) | Renal and urinary disorders ([1]; Overall (N = 31)): 10 (32.3%) | Respiratory, thoracic and mediastinal disorders ([1]; Overall (N = 31)): 8 (25.8%) | White blood cells urine positive ([1]; Overall (N = 31)): 9 (29.0%) | AEs that occurred during Period 1 ([1]; Period 1 (IV), of all AEs): 138/287 | total AEs reported ([1]; overall): 287 | serious TEAE ([1]; resulted in discontinuation of the subject): one serious TEAE of acute kidney injury | deaths ([1]; whole study): no deaths | ataxia reported ([2]; Cohort 1): no ataxia | Cumulative SARA Score ([2]; subject 20012078): 1 | SARA score: Fast alternating hand movements—left ([2]; subject 20012078): 0 | SARA score: Fast alternating hand movements—right ([2]; subject 20012078): 0 | SARA score: Finger chase—left ([2]; subject 20012078): 0 | SARA score: Finger chase—right ([2]; subject 20012078): 0 | SARA score: Gait ([2]; subject 20012078): 1 | SARA score: Heel–shin slide—left ([2]; subject 20012078): 0 | SARA score: Heel–shin slide—right ([2]; subject 20012078): 0 | SARA score: Nose–finger—left ([2]; subject 20012078): 0 | SARA score: Nose–finger—right ([2]; subject 20012078): 0 | SARA score: Sitting ([2]; subject 20012078): 0 | SARA score: Speech disturbance ([2]; subject 20012078): 0 | SARA score: Stance ([2]; subject 20012078): 0 | SARA score: Fast alternating hand movements—left ([2]; subject 20012079): 0 | SARA score: Fast alternating hand movements—right ([2]; subject 20012079): 0 | SARA score: Finger chase—left ([2]; subject 20012079): 0.5 | SARA score: Finger chase—right ([2]; subject 20012079): 0 | SARA score: Gait ([2]; subject 20012079): 2 | SARA score: Heel–shin slide—left ([2]; subject 20012079): 0 | SARA score: Heel–shin slide—right ([2]; subject 20012079): 0 | SARA score: Nose–finger—left ([2]; subject 20012079): 0 | SARA score: Nose–finger—right ([2]; subject 20012079): 0 | SARA score: Sitting ([2]; subject 20012079): 0 | SARA score: Speech disturbance ([2]; subject 20012079): 0 | SARA score: Stance ([2]; subject 20012079): 2 | SARA score: Fast alternating hand movements—left ([2]; subject 20012080): 0 | SARA score: Fast alternating hand movements—right ([2]; subject 20012080): 0 | SARA score: Finger chase—left ([2]; subject 20012080): 0 | SARA score: Finger chase—right ([2]; subject 20012080): 0 | SARA score: Gait ([2]; subject 20012080): 3 | SARA score: Heel–shin slide—left ([2]; subject 20012080): 0 | SARA score: Heel–shin slide—right ([2]; subject 20012080): 0 | SARA score: Nose–finger—left ([2]; subject 20012080): 0.5 | SARA score: Nose–finger—right ([2]; subject 20012080): 0.5 | SARA score: Sitting ([2]; subject 20012080): 0 | SARA score: Speech disturbance ([2]; subject 20012080): 0 | SARA score: Stance ([2]; subject 20012080): 2 | SARA score: Fast alternating hand movements—left ([2]; subject 20012081): 0 | SARA score: Fast alternating hand movements—right ([2]; subject 20012081): 0 | SARA score: Finger chase—left ([2]; subject 20012081): 0 | SARA score: Finger chase—right ([2]; subject 20012081): 0.5 | SARA score: Gait ([2]; subject 20012081): 1 | SARA score: Heel–shin slide—left ([2]; subject 20012081): 0 | SARA score: Heel–shin slide—right ([2]; subject 20012081): 0 | SARA score: Nose–finger—left ([2]; subject 20012081): 0 | SARA score: Nose–finger—right ([2]; subject 20012081): 0 | SARA score: Sitting ([2]; subject 20012081): 0 | SARA score: Speech disturbance ([2]; subject 20012081): 0 | SARA score: Stance ([2]; subject 20012081): 0 | Cumulative SARA Score ([2]; subject 20012082): 2 | SARA score: Fast alternating hand movements—left ([2]; subject 20012082): 0 | SARA score: Fast alternating hand movements—right ([2]; subject 20012082): 0 | SARA score: Finger chase—left ([2]; subject 20012082): 0 | SARA score: Finger chase—right ([2]; subject 20012082): 0 | SARA score: Gait ([2]; subject 20012082): 1 | SARA score: Heel–shin slide—left ([2]; subject 20012082): 0 | SARA score: Heel–shin slide—right ([2]; subject 20012082): 0 | SARA score: Nose–finger—left ([2]; subject 20012082): 0 | SARA score: Nose–finger—right ([2]; subject 20012082): 0 | SARA score: Sitting ([2]; subject 20012082): 0 | SARA score: Speech disturbance ([2]; subject 20012082): 0 | SARA score: Stance ([2]; subject 20012082): 1
